# Patent publication US8513224B2, “Crystalline form C of tigecycline dihydrochloride and methods for its preparation” (Sandoz AG, priority 2008, dated 2013)
# Structures can show the parent of a compound that is named as a salt.
# Legend:
# Assay type in all cases: physicochemical
# [1] = Physical stability at elevated temperatures (impurities by HPLC); settings: for 4-Epi-Tigecycline 7 days at 80° C. / Total impurities 7 days at 80° C. / Stability in words (impurities after storage): stored 7 days at 80° C.; for 4-Epi-Tigecycline 7 days at 80° C. / Total impurities 7 days at 80° C.: in % (unit assumed)
# Text: Tigecycline must be available in a physically stable form as well, in order to avoid degradation and as a consequence the building of undesired byproducts. Table 4 compares the stability data of the different crystalline forms of Tigecycline free base and Tigecycline hydrochloride with these of crystalline form C of Tigecycline dihydrochloride from the present invention.
# Therefore crystalline form C of Tigecycline dihydrochloride in essentially pure polymorphic form is more preferred than amorphous Tigecycline dihydrochloride.
# [2] = physchem
# Description: The finished dosage form contains lyophilized amorphous Tigecycline respectively Tigecycline hydrochloride. Before lyophilizing, Tigecycline respectively acid addition salts of Tigecycline are dissolved in water, thus water solubility is an important factor to consider.
# A UV-vis Lambda 35 spectrophotometer (Perkin-Elmer) was used (λ=347 nm, 1.0 cm quartz cells). Perkin Elmer® UV Win Lab-5.1 software was used.
# A saturated solution of Tigecycline, Tigecycline hydrochloride or Tigecycline dihydrochloride in distilled water was prepared and the suspension was stirred at room temperature for 30 minutes with a stirring speed of 1000 U/min. The suspension was filtered through a 0.45 μm filter. Finally the resulting solution was diluted 10000-fold and measured against water at a wavelength of 347 nm.
# [3] = Thermodynamical stability (crystal structure after storage); settings: stored 7 days at 80° C.
# [4] = Water content on storage at defined relative humidity; settings: stored at about 0% relative humidity
# Text: Form C of Tigecycline dihydrochloride is an anhydrous form, containing no water when stored at about 0% relative humidity and containing not more than about 0.8% to 1.7% e.g. when stored at about 50% relative humidity.
SMILES,4-Epi-Tigecycline at ambient conditions [1],Total impurities at ambient conditions [1],4-Epi-Tigecycline 7 days at 80° C. [1],Total impurities 7 days at 80° C. [1],also measured
"CN(C)c1cc(NC(=O)CNC(C)(C)C)c(O)c2c1C[C@H]1C[C@H]3[C@H](N(C)C)C(=O)C(C(N)=O)=C(O)[C@@]3(O)C(=O)C1=C2O [WO 2006/128150 III, Tigecycline]",0.16%,0.16%,2.18,4.46,
"CN(C)c1cc(NC(=O)CNC(C)(C)C)c(O)c2c1C[C@H]1C[C@H]3[C@H](N(C)C)C(O)=C(C(N)=O)C(=O)[C@@]3(O)C(O)=C1C2=O [WO 2006/128150 II, Tigecycline]",1.04%,1.6%,10.83,18.44,Stability in words (impurities after storage) [1]: tremendous increase in total impurities
"CN(C)c1cc(NC(=O)CNC(C)(C)C)c(O)c2c1C[C@H]1C[C@H]3[C@H](N(C)C)C(=O)C(C(N)=O)=C(O)[C@@]3(O)C(=O)C1=C2O [WO 2008/066935 XII, Tigecycline]",0.15%,0.4%,0.70,4.38,
"CN(C)c1cc(NC(=O)CNC(C)(C)C)c(O)c2c1C[C@H]1C[C@H]3[C@H](N(C)C)C(O)=C(C(N)=O)C(=O)[C@@]3(O)C(O)=C1C2=O [B (xHCl), Tigecycline hydrochloride]",,,,,4-Epi-Tigecycline at ambient conditions ([1]; hydrochloride): 0.93%; Total impurities at ambient conditions ([1]; hydrochloride): 1.91%; 4-Epi-Tigecycline 7 days at 80° C. ([1]; hydrochloride): 1.60; Total impurities 7 days at 80° C. ([1]; hydrochloride): 4.19
"CN(C)c1cc(NC(=O)CNC(C)(C)C)c(O)c2c1C[C@H]1C[C@H]3[C@H](N(C)C)C(O)=C(C(N)=O)C(=O)[C@@]3(O)C(O)=C1C2=O.Cl.Cl [C + 20% amorphous (x2HCl), Tigecycline dihydrochloride]",1.73%,1.81%,4.34,4.88,Stability in words (impurities after storage) [1]: less stable than a pure polymorphic form C
"CN(C)c1cc(NC(=O)CNC(C)(C)C)c(O)c2c1C[C@H]1C[C@H]3[C@H](N(C)C)C(O)=C(C(N)=O)C(=O)[C@@]3(O)C(O)=C1C2=O [A (xHCl), Tigecycline hydrochloride]",,,,,"Water solubility, Concentration ([2]; 30 min): 503 mg/mL; solubility at 30 min ([2]; water, thermodynamic from solid, Water solubility, Concentration): 503 mg/mL; 4-Epi-Tigecycline at ambient conditions ([1]; hydrochloride): 0.84%; Total impurities at ambient conditions ([1]; hydrochloride): 1.07%; 4-Epi-Tigecycline 7 days at 80° C. ([1]; hydrochloride): 0.89; Total impurities 7 days at 80° C. ([1]; hydrochloride): 1.81"
"CN(C)c1cc(NC(=O)CNC(C)(C)C)c(O)c2c1C[C@H]1C[C@H]3[C@H](N(C)C)C(O)=C(C(N)=O)C(=O)[C@@]3(O)C(O)=C1C2=O [WO 2008/066935 IX, Tigecycline]",0.15%,0.43%,0.70,2.13,
"CN(C)c1cc(NC(=O)CNC(C)(C)C)c(O)c2c1C[C@H]1C[C@H]3[C@H](N(C)C)C(O)=C(C(N)=O)C(=O)[C@@]3(O)C(O)=C1C2=O [WO 2006/128150 I, Tigecycline]",0.36%,0.75%,2.15,11.20,Stability in words (impurities after storage) [1]: tremendous increase in total impurities
"CN(C)c1cc(NC(=O)CNC(C)(C)C)c(O)c2c1C[C@H]1C[C@H]3[C@H](N(C)C)C(O)=C(C(N)=O)C(=O)[C@@]3(O)C(O)=C1C2=O [amorphous (x2HCl), Tigecycline dihydrochloride]",,,,,4-Epi-Tigecycline at ambient conditions ([1]; dihydrochloride): 4.97%; Total impurities at ambient conditions ([1]; dihydrochloride): 5.05%; 4-Epi-Tigecycline 7 days at 80° C. ([1]; dihydrochloride): 16.42; Total impurities 7 days at 80° C. ([1]; dihydrochloride): 18.82
"CN(C)c1cc(NC(=O)CNC(C)(C)C)c(O)c2c1C[C@H]1C[C@H]3[C@H](N(C)C)C(O)=C(C(N)=O)C(=O)[C@@]3(O)C(O)=C1C2=O [WO 2006/128150 V, Tigecycline]",< 0.05%,0.22%,0.18,0.37,
"CN(C)c1cc(NC(=O)CNC(C)(C)C)c(O)c2c1C[C@H]1C[C@H]3[C@H](N(C)C)C(O)=C(C(N)=O)C(=O)[C@@]3(O)C(O)=C1C2=O [WO 2007/127292 I, Tigecycline]",,,,,4-Epi-Tigecycline at ambient conditions ([1]; listed as WO 2007/127792 I): 0.34%; Total impurities at ambient conditions ([1]; listed as WO 2007/127792 I): 0.59%; 4-Epi-Tigecycline 7 days at 80° C. ([1]; listed as WO 2007/127792 I): 1.26; Total impurities 7 days at 80° C. ([1]; listed as WO 2007/127792 I): 2.22
"CN(C)c1cc(NC(=O)CNC(C)(C)C)c(O)c2c1C[C@H]1C[C@H]3[C@H](N(C)C)C(O)=C(C(N)=O)C(=O)[C@@]3(O)C(O)=C1C2=O [WO 2006/128150 IV, Tigecycline]",0.23%,0.4%,0.38,0.87,
"CN(C)c1cc(NC(=O)CNC(C)(C)C)c(O)c2c1C[C@H]1C[C@H]3[C@H](N(C)C)C(O)=C(C(N)=O)C(=O)[C@@]3(O)C(O)=C1C2=O [WO 2007/127292 II, Tigecycline]",,,,,4-Epi-Tigecycline at ambient conditions ([1]; listed as WO 2007/127792 II): 0.17%; Total impurities at ambient conditions ([1]; listed as WO 2007/127792 II): 0.24%; 4-Epi-Tigecycline 7 days at 80° C. ([1]; listed as WO 2007/127792 II): 0.38; Total impurities 7 days at 80° C. ([1]; listed as WO 2007/127792 II): 0.91
"CN(C)c1cc(NC(=O)CNC(C)(C)C)c(O)c2c1C[C@H]1C[C@H]3[C@H](N(C)C)C(O)=C(C(N)=O)C(=O)[C@@]3(O)C(O)=C1C2=O [C (x2HCl), Tigecycline dihydrochloride]",0.73%,0.83%,2.40,2.60,Water solubility compared with the other crystalline forms [2]: highest water solubility; Change of crystal structure on storage [3]: did not change its crystal structure; Water content [4]: no water
